Patent US5298494A, “Monosaccharides having anti-proliferation and anti-inflammatory activity, compositions and uses thereof” (Greenwich Pharmaceuticals Incorporated, priority 1993, dated 1994)

Key:
[1] = test system: T cell proliferation in mouse spleen cell mixed lymphocyte cultures; experiment: Mixed Lymphocyte Reaction (MLR) assay; format: cell-based, mouse (Balb/c responder, C57B1/6 stimulator); conditions: for inhibition at 3 µM / inhibition at 10 µM / inhibition at 30 µM / inhibition at 100 µM / inhibition at 300 µM: Mus musculus, Lymphocyte, read-out: % Change From Control, MLR
Procedure, shortened: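 Balb/c responder spleen cells (2.5×10^5) co-cultured with mitomycin C-treated C57Bl/6 stimulators (5×10^5) for 5 days at 37 C with compound dilutions of 3–300 uM or DMSO. Proliferation read by MTT (OD 570-650 nm). Allogeneic minus syngeneic means were expressed as % change from vehicle control.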

[2] = test system: Interleukin 1 (IL-1) production by peritoneal macrophages; experiment: IL-1 Assay: production of interleukin-1 by peritoneal macrophages (thymocyte bioassay); format: cell-based, mouse (C57B1/6); design: inhibition: dose or concentration left out as unconfirmed; conditions: for inhibition at 0.001 µg/mL / inhibition at 0.01 µg/mL / inhibition at 0.1 µg/mL / inhibition at 2.5 µg/mL / inhibition at 10 µg/mL / inhibition at 25 µg/mL / inhibition at 100 µg/mL / inhibition: Mus musculus, Peritoneal macrophage, read-out: % effect on IL-1 production (thymidine uptake by thymocytes)
Source text: Interleukin 1 (IL-1) is a potent immunomodulatory cytokine that has a broad range of pro-inflammatory activities. IL-1 is known to be produced by activated accessory cells such as macrophages. Accessory cell production of IL-1 results in the activation and proliferation of T and B lymphocytes. Therefore, by inhibiting macrophage activation and production of IL-1, the activation and proliferation of the cellular effectors of inflammation can be modulated. Compounds of the invention were screened for inhibitory activity in a classical IL-1 assay. Six to 8 week old male C57B1/6 mice were purchased from Harlan Sprague Dawley. Peritoneal macrophages were elicited by the administration to mice of a single intraperitoneal injection of 0.2 ml of complete Freund's adjuvant. After 48 hours, elicited macrophages were removed from the mice by lavage with the use of Hank's balanced salt solution. […] To the macrophage cultures were added various doses of the compounds of the invention and 10 ug/ml of the macrophage activator lipopolysaccharide (to stimulate IL-1 production). Control cultures consisted of macrophages, lipopolysaccharide and culture medium containing various doses of DMSO only. […] The amount of IL-1 produced in the individual wells was determined in a bioassay for IL-1. This involved the removal of thymuses from mice less than 8 weeks of age. Thymocytes were isolated by passing each thymus through a stainless steel mesh screen. […] After 18 hours cells were harvested and radioactive incorporation (as a measure of cell proliferation) was quantitated in a liquid scintillation counter. The students t test was used to determine the significance of the difference between experimental and control values.

| Structure (SMILES) | Mean O.D. Allogenic ([1]; 3 um) | Mean O.D. Syngeneic ([1]; 3 um) | Mean O.D. Allogenic ([1]; 10 um) | Mean O.D. Syngeneic ([1]; 10 um) | ^3 H-Thymidine uptake by thymocytes ([2]; 0.001 ug/ml) | ^3 H-Thymidine uptake by thymocytes ([2]; 0.01 ug/ml) | ^3 H-Thymidine uptake by thymocytes ([2]; 0.1 ug/ml) | ^3 H-Thymidine uptake by thymocytes ([2]; 1 ug/ml) | ^3 H-Thymidine uptake by thymocytes ([2]; 2.5 ug/ml) | ^3 H-Thymidine uptake by thymocytes ([2]; 10 ug/ml) | ^3 H-Thymidine uptake by thymocytes ([2]; 25 ug/ml) | ^3 H-Thymidine uptake by thymocytes ([2]; 100 ug/ml) | inhibition at 0.001 µg/mL ([2]; 0.001 ug/ml) | inhibition at 0.01 µg/mL ([2]; 0.01 ug/ml) | inhibition at 0.1 µg/mL ([2]; 0.1 ug/ml) | inhibition at 2.5 µg/mL ([2]; 2.5 ug/ml) | inhibition at 10 µg/mL ([2]; 10 ug/ml) | inhibition at 25 µg/mL ([2]; 25 ug/ml) | inhibition at 100 µg/mL ([2]; 100 ug/ml) | inhibition [2] | other results |
| --- | --- | --- | --- | --- | --- | --- | --- | --- | --- | --- | --- | --- | --- | --- | --- | --- | --- | --- | --- | --- | --- |
| CC1(C)OC2OC(C(O)COCCCc3ccccc3)C(O)C2O1 [IIIe, 1,2-O-Isopropylidene-6-O-3'-(phenylpropyl)-α-D-glucofuranose] | 0.174 O.D. | 0.052 O.D. | 0.122 O.D. | 0.081 O.D. | 7,276 ± 399 cpm | 8,908 ± 773 cpm | 8,049 ± 282 cpm | 4,279 ± 691 cpm | 3,676 ± 506 cpm | 2,586 ± 553 cpm | 1,840 ± 301 cpm | 1,129 ± 299 cpm | -11% | -8% | -4% | 56% | 66% | 76% | 83% | -45% | Mean O.D. Allogenic ([1]; 30 um): 0.084 O.D.; Mean O.D. Syngeneic ([1]; 30 um): 0.066 O.D.; Mean O.D. Allogenic ([1]; 100 um): 0.034 O.D.; Mean O.D. Syngeneic ([1]; 100 um): 0.024 O.D.; Mean O.D. Allogenic ([1]; 300 um): 0.009 O.D.; Mean O.D. Syngeneic ([1]; 300 um): 0.010 O.D.; inhibition at 3 µM ([1]; 3 um): 19%; inhibition at 10 µM ([1]; 10 um): 73%; inhibition at 30 µM ([1]; 30 um): 88%; inhibition at 100 µM ([1]; 100 um): 93%; inhibition at 300 µM ([1]; 300 um): 101% |
| CN1CCCC1CCNC[C@H]1OC(C)(C)O[C@@H]2[C@H]3OC(C)(C)O[C@H]3O[C@@H]21 (stereo partly drawn) [IIIi] | 0.128 O.D. | 0.090 O.D. | 0.180 O.D. | 0.102 O.D. | 11,367 ± 906 cpm | 9,902 ± 888 cpm | 10,740 ± 724 cpm | 9,561 ± 113 cpm | 5,382 ± 45 cpm | 5,169 ± 870 cpm | 5,052 ± 140 cpm | 2,328 ± 278 cpm | -39% | -20% | -39% | 35% | 33% | 34% | 65% | -22% | effect on MLR in words [1]: strong non dose dependent inhibition of T lymphocyte proliferation; Mean O.D. Allogenic ([1]; 30 um): 0.165 O.D.; Mean O.D. Syngeneic ([1]; 30 um): 0.078 O.D.; Mean O.D. Allogenic ([1]; 100 um): 0.095 O.D.; Mean O.D. Syngeneic ([1]; 100 um): 0.066 O.D.; Mean O.D. Allogenic ([1]; 300 um): 0.019 O.D.; Mean O.D. Syngeneic ([1]; 300 um): 0.030 O.D.; inhibition at 3 µM ([1]; 3 um): 15%; inhibition at 10 µM ([1]; 10 um): 48%; inhibition at 30 µM ([1]; 30 um): 42%; inhibition at 100 µM ([1]; 100 um): 81%; inhibition at 300 µM ([1]; 300 um): 107% |
| CCCCCCCOCCCO[C@@H]1[C@H]2OC(C)(C)O[C@H]2O[C@@H]1[C@H](O)CO [IIg] | – | – | – | – | 8,823 ± 771 cpm | 7,873 ± 379 cpm | 8,790 ± 533 cpm | 7,307 ± 680 cpm | 7,229 ± 471 cpm | 4,854 ± 471 cpm | 3,265 ± 141 cpm | 934 ± 43 cpm | -8% | 4% | -14% | 13% | 37% | 57% | 80% | 6% | % Change From Control, MLR ([1]; Table X, 3 ugm): -61%; % Change From Control, MLR ([1]; Table X, 10 ugm): -15%; Mean O.D. Allogenic ([1]; Table X, 10 ugm): 0.197 O.D.; Mean O.D. Syngeneic ([1]; Table X, 10 ugm): 0.070 O.D.; % Change From Control, MLR ([1]; Table X, 30 ugm): -36%; Mean O.D. Allogenic ([1]; Table X, 30 ugm): 0.171 O.D.; Mean O.D. Syngeneic ([1]; Table X, 30 ugm): 0.075 O.D.; % Change From Control, MLR ([1]; Table X, 100 ugm): -101%; % Change From Control, MLR ([1]; Table X, 300 ugm): -97%; strong non-dose dependent inhibition in MLR ([1]; several concentrations): greater than -50 % of control |
| CCCCCCCOC[C@H]1O[C@@]2(OC)COC(C)(C)O[C@H]2[C@@H]1O [Ia, methyl 1,3-O-isopropylidene-6-O-heptyl-α-D-fructofuranoside] | 0.375 O.D. | 0.193 O.D. | 0.361 O.D. | 0.175 O.D. | 10,550 cpm | 10,960 cpm | 10,265 ± 227 cpm | 10,777 ± 1,903 cpm | 8,250 ± 705 cpm | 4,970 ± 410 cpm | 3,210 ± 149 cpm | 2,215 ± 643 cpm | 3% | -1% | 8% | 28% | 51% | 63% | 75% | 2% | Mean O.D. Allogenic ([1]; 30 um): 0.334 O.D.; Mean O.D. Syngeneic ([1]; 30 um): 0.167 O.D.; Mean O.D. Allogenic ([1]; 100 um): 0.429 O.D.; Mean O.D. Syngeneic ([1]; 100 um): 0.192 O.D.; Mean O.D. Allogenic ([1]; 300 um): 0.162 O.D.; Mean O.D. Syngeneic ([1]; 300 um): 0.107 O.D.; inhibition at 3 µM ([1]; 3 um): 5%; inhibition at 10 µM ([1]; 10 um): 3%; inhibition at 30 µM ([1]; 30 um): 13%; inhibition at 100 µM ([1]; 100 um): -23%; inhibition at 300 µM ([1]; 300 um): 71% |
